Test results taken from US5244920A, “Pharmaceutical compositions having therapeutical activity based on mercaptoethansulphonic arginine salt” (Schering Spa, priority 1985, dated 1993).

Key:
[1] = background statement; cited from earlier work
urinary Trp metabolites = assay: in vivo trial: urinary tryptophan and metabolites in bladder cancer patients (HPLC in reverse phase)
Method: 24 bladder cancer patients were randomized into two groups to receive MESNA-Arginine (per os, 800 mg/daily) or placebo. In both groups 24 hours before and after administration of the drug (MESNA-Arginine, or Placebo), urinary Kynurenine (Ky), Xanthurenic acid (XA), 5-hydroxy-indoleacetic acid (5-HIAA), AA, Trp and 3-OH-AA were determined by HPLC in reverse phase (Rocchini P., Bizzari M., Pompei M; Ciani D., Panicucci M. and Gallo S. Urinary determination of Tryptophan and related metabolites through HPLC in reverse-phase. Rass. Chimi. 1:15-18, 1984.)

solubility in water = assay type: physicochemical
pH in water solution = assay type: physicochemical; details: 10% aqueous solution
[2] = per os, 800 mg/daily, after 24 hours, P-0.001
[3] = per os, 800 mg/daily, after 24 hours, listed as MESNA-Arginine
[4] = per os, 800 mg/daily, after 24 hours, listed as MESNA-arginine

Row | Compound | instability of the compound in the free state [1] | cerebral uptake of Trp (urinary Trp metabolites; inferred from rate excretion of 5-HIAA) | urinary tryptophan levels (urinary Trp metabolites; per os, 800 mg/daily, after 24 hours) | reduction of urinary 3-OH-anthranilic acid (urinary Trp metabolites; [2]) [%] | reduction of urinary anthranilic acid (urinary Trp metabolites; [2]) [%] | urinary 5-HIAA (urinary Trp metabolites; [3]) | urinary kynurenine (Ky) (urinary Trp metabolites; [3]) | urinary xanthurenic acid (XA) (urinary Trp metabolites; [3]) | urinary 5-HIAA (urinary Trp metabolites; [4]) | urinary kynurenine (Ky) (urinary Trp metabolites; [4]) | urinary xanthurenic acid (XA) (urinary Trp metabolites; [4]) | solubility in water (solubility in water) | pH in 10% water solution (pH in water solution)
1 | O=S(=O)(O)CCS [MESNA, mercaptoethansulphonic acid] | high instability |  |  |  |  |  |  |  |  |  |  |  | 
2 | O=S(=O)(O)CCS [Example 2, arginine mercaptoethansulphonate] |  | no variations | slight reduction | -71 | -61 | no variation | no variation | no variation | substantial invariance | unchanged | unchanged | perfect | 6.7
